Assay results taken from paper PMC7112168 (PLoS Pathogens, 2020).

Biological target: T1, PelD^Bc (PelD^Bc150-407; also PelD^Bc170-403)
T1 construct: gene BCE_5583
Settings: 20 mM HEPES pH 8.0, 150 mM NaCl, 5% glycerol, 1 mM DTT; 25 μM protein, 450 μM c-di-GMP in syringe; single-site model; proposed I-site (RxxD)

Work on `Nc1nc2c(ncn2[C@@H]2O[C@@H]3COP(=O)(O)O[C@H]4[C@@H](O)[C@H](n5cnc6c(=O)[nH]c(N)nc65)O[C@@H]4COP(=O)(O)O[C@H]3[C@H]2O)c(=O)[nH]1` [c-di-GMP] yielded a Kd of 103 ± 14 nM.
